Laboratory results as given in US5360803A, “Composition and method for treating cancer” (Dan Farber Cancer Institute, priority 1992, dated 1994).
Where two headings read alike, the source gives them in different places.

Key:
CV-1 cells = test: selective killing assay, colony number reduced to 50% of control, normal monkey kidney epithelial cell line CV-1; assay type: cell-based; settings: 24 hours treatment; for IC50: Primates
Source text: (§1) The control received culture media only.

CX-1 cells = test: selective killing assay, colony number reduced to 50% of control, human colon carcinoma cell line CX-1; assay type: cell-based; settings: for Selectivity (ratio of IC50 for CV-1 and IC50 for CX-1): CV-1/CX-1; for IC50 / CX-1 (IC50): human colon carcinoma, 24 hours treatment, colony count after 7 to 10 days;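 on all read-outs here: colonies stained with crystal violet and counted, control cells given medium alone, exposure at 37 °C, normal monkey kidney epithelial CV-1 cells as the non-cancer comparator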
Procedure: (§2) Human colon carcinoma cell line CX-1 or normal monkey kidney epithelial cell line CV-1 was chosen as representatives of cancer cells and normal cells, respectively. […] CX-1 cells (2,000 cells/well) and CV-1 cells (1,000 cells/well) were plated in 24-well plastic culture plates. […] The control received culture media only. Cells were treated with compounds of General Formulas (I) to (V) at 37° C. for 24 hours. After rinsing with fresh culture medium three times, the cells were further incubated at 37° C. for 7 to 10 days. Cell colonies were fixed and stained with 2% crystal violet in 70% ethanol for 10 minutes and rinsed in water. […] The selectivity is defined as the ratio of IC50 for CV-1 and IC50 for CX-1.

LOX cells = test: colony assay of Example 1 with human melanoma LOX cell line; assay type: cell-based; settings: for Selectivity: CV-1/LOX; for IC50: Homo sapiens, LOX, 24 h;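 on all read-outs here: colony formation assay with 24 h exposure at 37 °C, then 7 to 10 days of regrowth, crystal violet staining of colonies, control wells given medium alone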
Procedure: as §2

MCF-7 cells = test: colony assay of Example 1 with human breast carcinoma MCF-7 cell line; assay type: cell-based; settings: for Selectivity: CV-1/MCF-7; for IC50: Homo sapiens, MCF7, 24 h, Table VI, human breast carcinoma, 24 hours treatment
Source text: as §1

CRL 1420 cells = test: colony assay of Example 1 with human pancreatic carcinoma CRL 1420 cell line; assay type: cell-based; settings: for Selectivity: CV-1/CRL-1420; for IC50: Homo sapiens, 24 h;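 on all read-outs here: colony formation assay, cells exposed for 24 h then regrown 7 to 10 days without compound, colonies stained with crystal violet, control given medium alone, normal reference CV-1 monkey kidney epithelial cells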
Procedure: as §2

human melanoma LOX = test: survival of nude mice implanted with human melanoma LOX; assay type: in vivo, male athymic Swiss nu/nu mouse (human tumor); settings: Mus musculus, ip, 24 h, read-out: T/C; for response vs control in vivo at 3 mg/kg: 3 mg/kg i.p. on day 1, 4, 8, 10, 12
Procedure: LOX, a human melanoma cell line, grown subcutaneously in nude mice was excised, trypsinized to yield a single cell suspension using a metal grid with a […] mesh. […] Five million viable trypan blue negative cells made up in 0.1 ml of Dulbecco modified Eagle medium (DMFE) were injected into the peritoneal cavity of a male athymic Swiss nu/nu mouse. The control group and each treatment group consisted of 5 to 10 mice. Treatment was commenced the following day by intraperitoneal injection.
Ten control mice received 0.25 ml of 2% dextrose on these days the treated groups were injected with the compounds of this invention. […] T/C is the ratio, expressed as a percentage of the mean survival age of the treated group to the mean survival age of the untreated control group.

EJ cells = test: colony assay of Example 1 with human bladder carcinoma EJ cell line; assay type: cell-based; settings: for Selectivity: CV-1/EJ; for IC50: Homo sapiens, EJ, 24 h, Table IV, human bladder carcinoma, 24 hours treatment;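 on all read-outs here: colony formation assay with 24 h compound exposure at 37 °C, then 7–10 days drug-free regrowth, colonies stained with crystal violet, controls given medium alone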
Procedure: as §2

[1] = CV-1, Table III, normal monkey kidney epithelial cells, colony count after 7 to 10 days
[2] = Table V, human melanoma, 24 hours treatment
[3] = Table VII, human pancreatic carcinoma, 24 hours treatment

| Compound | IC50 (CV-1 cells; CV-1, 24 h, Table V) | IC50 (CV-1 cells; CV-1, 24 h, Table VI) | IC50 (CV-1 cells; CV-1, 24 h, Table VII) | IC50 (CV-1 cells; [1]) | Selectivity (ratio of IC50 for CV-1 and IC50 for CX-1) (CX-1 cells) | IC50 (CX-1 cells; Homo sapiens, CX-1, Table III) | Selectivity (LOX cells) | IC50 (LOX cells; [2]) | Selectivity (MCF-7 cells) | IC50 (MCF-7 cells) | Selectivity (CRL 1420 cells) | IC50 (CRL 1420 cells; [3]) | response vs control in vivo at 3 mg/kg (human melanoma LOX) | IC50 (CV-1 cells; CV-1, 24 h, Table IV) | Selectivity (EJ cells) | IC50 (EJ cells) | further results |
| --- | --- | --- | --- | --- | --- | --- | --- | --- | --- | --- | --- | --- | --- | --- | --- | --- | --- |
| CCn1c(=CC2=[N+](CC)CCS2)sc(=C2Oc3ccc4ccccc4c3N2C)c1=O [Compound 215] | 20 µg/mL | 20 µg/mL | 20 µg/mL | 10 µg/mL | 200 | 0.05 µg/mL | 500 | 0.04 µg/mL | 200 | 0.1 µg/mL | 222 | 0.09 µg/mL | 167% |  |  |  |  |
| CCn1c(=Cc2sc3ccc4ccccc4c3[n+]2CC)sc(=C2SCCN2C)c1=O [Compound 224] | 20 µg/mL | 20 µg/mL |  | 20 µg/mL | 250 |  | 200 | 0.1 µg/mL | 200 | 0.1 µg/mL |  |  | 161% |  |  |  | IC50 (CX-1 cells; CX-1, Table III): 0.08 µg/mL |
| CCn1c(=Cc2sc3ccc4ccccc4c3[n+]2CC)sc(=C2Oc3ccc4ccccc4c3N2C)c1=O [Compound 116] |  | 6 µg/mL |  |  |  |  |  |  | 150 | 0.04 µg/mL |  |  |  |  |  |  |  |
| CCn1c(=C2CC[n+]3c2sc2ccccc23)sc(=C2Sc3ccccc3N2C)c1=O [Compound 29] | 10 µg/mL | 10 µg/mL | 10 µg/mL | 10 µg/mL | 333 | 0.03 µg/mL | 333 | 0.03 µg/mL | 200 | 0.05 µg/mL | 500 | 0.02 µg/mL |  | 10 µg/mL | 200 | 0.05 µg/mL |  |
| CCn1c(=Cc2cc[n+](CC)c3ccccc23)sc(=C2C=Cc3ccccc3N2C)c1=O [Compound 232] | 6 µg/mL | 6 µg/mL | 6 µg/mL |  |  |  | 300 | 0.02 µg/mL | 150 | 0.04 µg/mL | 200 | 0.03 µg/mL | > 270% | 6 µg/mL | 120 | 0.05 µg/mL |  |
| CCn1c(=Cc2oc3ccc4ccccc4c3[n+]2CC)sc(=C2Sc3ccccc3N2C)c1=O [Compound 337] | 8 µg/mL | 8 µg/mL |  | 8 µg/mL | 100 | 0.08 µg/mL | 800 | 0.01 µg/mL | 160 | 0.05 µg/mL |  |  |  | 8 µg/mL | 267 | 0.03 µg/mL | response vs control in vivo at 5 mg/kg (human melanoma LOX; 5 mg/kg i.p. on day 1, 3, 4, 6, 8, 10, 13): 137% |
| CCn1c(=Cc2sc3c4ccccc4ccc3[n+]2CC)sc(=C2Sc3ccc4ccccc4c3N2C)c1=O [Compound 204] |  |  |  |  | 667 |  | 222 |  |  |  | 500 |  |  |  |  |  | CV-1 (IC50) (CV-1 cells; Table III, normal monkey kidney epithelial cells, colony count after 7 to 10 days): 20 µg/mL; CV-1 (IC50) (CV-1 cells; Table V): 20 µg/mL; CV-1 (IC50) (CV-1 cells; Table VII): 20 µg/mL; CX-1 (IC50) (CX-1 cells; Table III): 0.03 µg/mL; LOX(IC50) (LOX cells; [2]): 0.09 µg/mL; CRL-1420(IC50) (CRL 1420 cells; [3]): 0.04 µg/mL; response vs control in vivo at 10 mg/kg (human melanoma LOX; 10 mg/kg i.p. on day 1, 4, 8, 10, 12): > 270% |
| CCn1c(=Cc2oc3c4ccccc4ccc3[n+]2CC)sc(=C2Oc3ccc4ccccc4c3N2C)c1=O [Compound 254] | 6 µg/mL | 6 µg/mL | 6 µg/mL |  | 120 |  | 1200 | 0.005 µg/mL | 200 | 0.03 µg/mL | 1200 | 0.005 µg/mL |  | 6 µg/mL | 600 | 0.01 µg/mL | CX-1 (IC50) (CX-1 cells; Table III): 0.05 µg/mL |
| CCn1c(=Cc2oc3c4ccccc4ccc3[n+]2CC)sc(=C2Sc3ccc4ccccc4c3N2C)c1=O [Compound 85] |  |  |  | 6 µg/mL | 750 | 0.008 µg/mL | > 600 | < 0.01 µg/mL |  |  | 600 | 0.01 µg/mL |  |  | 857 | 0.007 µg/mL | response vs control in vivo at 5 mg/kg (human melanoma LOX; 5 mg/kg i.p. on day 1, 4, 8, 11, 15): 174% |
